Results taken from patent US10512656B2, “Compositions and methods for the treatment of lysosomal storage disorders and disorders characterized by lysosomal dysfunction” (Baylor College of Medicine, priority 2016, dated 2019).

Assays:
TFEB [1] = assay: TFEB nuclear translocation in cells expressing constitutively active Akt (Akt-DD); type: cell-based, human; conditions: 24 h
Experimental: FIG. 16. Trehalose controls Akt regulation of TFEB in a GSK3β-independent manner. (a) HeLa cells were treated with trehalose for 24 h or left untreated. Immunoblot analyses were used to evaluate levels of GSK33 and its phosphorylation status. GAPDH was used as a loading control. (b) HeLa cells were cotransfected with TFEB-3×Flag and constitutively active GSK3β (CA-GSK3β), treated with trehalose or MK2206 for 24 h, and examined by immunofluorescence labeling for Flag (red) and GSK3β (green). Scale bar is 20 […]. (c) HeLa cells were cotransfected with TFEB-3×Flag and constitutively active Akt (Akt-DD), treated with the GSK3β inhibitor CHIR99021 for 24 h, and examined by immunofluorescence labeling for Flag (red) and Akt (green). Scale bar is 20 μm.

TFEB [2] = assay: TFEB nuclear translocation in HeLa/TFEB cells; type: cell-based, human; conditions: confocal microscopy and subcellular fractionation
Experimental: Control (Coriell Institute, USA) and JNCL fibroblasts (Gaslini Institute, Italy) were grown in DMEM (1:1, HyClone) supplemented with 10% heat-inactivated fetal bovine serum (FBS, Atlanta Biologicals), 2 mM L-glutamine, 100 U/ml penicillin and […] streptomycin (Invitrogen). HeLa cells were incubated for 2 h with LY294002 ([…], Cell Signaling), Torin 1 (300 nM, Cayman Chemical) or for 24 h with trehalose (100 mM, Sigma), rapamycin (300 nM, Sigma), MK2206 (1 μM, Selleckchem), U0126 ([…], Tocris) and dialyzed serum (GE Healthcare Life Sciences) for 30 min. For immunofluorescence assay, cells were grown on coverslips in 24-well plates. After the treatment, cells were washed with PBS and fixed with methanol for 10 min. Cells were then blocked with blocking reagent (0.1% saponin, 10% bovine serum in PBS) for 1 h and incubated with appropriate primary antibody(s) (1:100) for 3 h at room temperature. After three washes with PBS, the cells were incubated with appropriate secondary antibodies (1:500) for 1 h at room temperature. Coverslips were then mounted with vectashield containing 4,6-diamidino-2-phenylindole (H-1200) for imaging via confocal microscopy. Cell pellets were resuspended in lysis buffer (10 mM Hepes pH 7.9, 10 mM KCl, 0.1 mM EDTA and 0.4% Nonidet P40) with inhibitors by pipetting and kept in ice for 30 min. After 1 min of spin at full speed, the supernatant was collected as cytosolic fraction. The pellet was washed twice with lysis buffer and resuspended with nuclear buffer (20 mM Hepes pH 7.9, 0.4M NaCl and 1 mM EDTA) containing phosphatases and proteases inhibitors. After 15 min of vigorous shaking on an Eppendorf shaker, the pellet was spun down at full speed for 10 min. The supernatant was used as the nuclear fraction.

[3] = system: Batten mice (Cln3 KO mice); assay: Neuronal cell death (density of CAS-3 positive cells); type: in vivo, mouse
Experimental: (§1) Batten mice (Cln3 KO mice) were administered trehalose, a low dose of miglustat, a high dose of miglustat, or a combination of trehalose and miglustat. Two controls were used in these experiments: (1) untreated Batten mice, and (2) untreated wild type mice. Neuronal cell death (measured by the density (no. of cells/area) of CAS-3 positive cells), neuroinflammation (measured by the number of GFAP-positive astrocyte cells in the neuronal system), and macrophage infiltration into the nervous system (measured by the % area of CD68) were measured.

[4] = system: Batten mice (Cln3 KO mice); assay: Astrogliosis (GFAP-positive cells); type: in vivo, mouse
Experimental: as §1

[5] = system: Batten mice (Cln3 KO mice); assay: Macrophage infiltration (% area of CD68); type: in vivo, mouse
Experimental: as §1

[6] = biological target: TFEB-3×FLAG (transcription factor EB, wild type, Flag-tagged) (UniProt P19484)
TFEB-3×FLAG (transcription factor EB, wild type, Flag-tagged), sequence (P19484 whole entry): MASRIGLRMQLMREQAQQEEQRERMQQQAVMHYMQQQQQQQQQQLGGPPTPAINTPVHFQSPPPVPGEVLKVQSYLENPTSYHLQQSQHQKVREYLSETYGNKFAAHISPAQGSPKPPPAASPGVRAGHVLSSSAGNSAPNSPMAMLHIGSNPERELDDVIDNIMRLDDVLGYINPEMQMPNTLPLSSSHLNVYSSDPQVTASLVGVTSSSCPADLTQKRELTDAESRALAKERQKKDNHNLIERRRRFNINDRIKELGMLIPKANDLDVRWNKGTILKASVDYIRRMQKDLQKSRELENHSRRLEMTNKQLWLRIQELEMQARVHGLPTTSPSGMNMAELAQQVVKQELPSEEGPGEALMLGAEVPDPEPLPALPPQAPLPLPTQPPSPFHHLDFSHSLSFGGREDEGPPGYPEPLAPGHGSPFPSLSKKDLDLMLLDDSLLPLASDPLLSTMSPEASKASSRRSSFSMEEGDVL

[7] = all miglustat-treated Batten mice
[8] = all miglustat-treated mice, P<0.05

Cc1c[nH]c(-c2cnc(NCCNc3ccc(C#N)cn3)nc2-c2ccc(Cl)cc2Cl)n1 [CHIR-99021]
TFEB nuclear translocation (TFEB [1]): promoted nuclear translocation of TFEB

CCC(=O)N1CCN(c2ccc(-n3c(=O)ccc4cnc5ccc(-c6cnc7ccccc7c6)cc5c43)cc2C(F)(F)F)CC1 [Torin 1]
TFEB nuclear translocation on kinase inhibitors (TFEB [2]): TFEB nuclear translocation

CCCCN1C[C@H](O)[C@@H](O)[C@H](O)[C@H]1CO [miglustat]
neuronal cell death vs wild-type mice [3, 7]: indistinguishable from the wild-type mice | neuronal cell death vs untreated Batten mice ([3]; low dose, high dose, or combined with trehalose, P<0.05): less neuronal cell death | astrogliosis vs wild-type mice [4, 7]: indistinguishable from the wild-type mice | GFAP-positive cells vs untreated Batten mice [4, 8]: less GFAP-positive cells | macrophage infiltration vs wild-type mice [5, 7]: indistinguishable from the wild-type mice | macrophage infiltration vs untreated Batten mice [5, 8]: less macrophage infiltration

purified, active AKT1 enzyme (SignalChem)
in vitro Akt kinase assay ([32P]ATP, autoradiography) [6]: Akt phosphorylates purified TFEB
